For orientation: IC50 means the point on the concentration scale where inhibition reaches its midpoint. By solubility is commonly meant the concentration that dissolves in the medium under given conditions. Lower therefore signals a poorly soluble substance. What is called half-life is the time in which the quantity being followed falls by half. As usually defined, the GI50 is the concentration giving 50% growth inhibition.

The results in this text go back to ChEMBL document CHEMBL3627707, “Incorporation of metabolically stable ketones into a small molecule probe to increase potency and water solubility” (Bioorg Med Chem Lett, 2015).

Series [1] in a line: Growth inhibition of human RAS-G12V overexpressing BJeLR cells after 48 hrs by alamar blue assay. It counts as functional, cell-based. On the technique in general: The colour change of resazurin is a common sign of viable cells or microbes.
Series [2] in a line: Selectivity ratio of IC50 for human BJeH cells to IC50 for human RAS-G12V overexpressing BJeLR cells. It is filed as ADME, cell-based. As to conditions: BJeH cells and RAS-G12V overexpressing BJeLR cells, read-out: Ratio IC50.
The next series has as its system DRD. The series is described as follows: Growth inhibition of human RAS-G12V overexpressing DRD cells after 48 hrs by alamar blue assay. It is filed as functional, cell-based.
The nature of series [3]: Solubility of compound in water. Conditions: buffer. It is filed as physicochemical.
The nature of series [4]: (§1) Half life in mouse liver microsomes by LC-MS/MS analysis. It is filed as ADME. As to conditions: liver microsomes. Background: Microsomes from liver hold many membrane-bound enzymes, among them those of drug oxidation.
Series [5] is described as follows: Metabolic stability in mouse liver microsomes assessed as compound remaining after 30 mins by LC-MS/MS analysis. It is filed as ADME. As to conditions: read-out: Stability.
A short description of series [6]: Metabolic stability in mouse liver microsomes assessed as compound remaining after 5 mins by LC-MS/MS analysis. It is filed as ADME. As to conditions: for remaining at 5 min: liver microsomes, read-out: Stability; for Stability: microsomes, 5 min.
Series [7] in a line: Metabolic stability in mouse liver microsomes assessed as compound remaining after 15 mins by LC-MS/MS analysis. It counts as ADME. As to conditions: read-out: Stability.
Series [8] can be described thus: Metabolic stability in mouse liver microsomes assessed as compound remaining after 45 mins by LC-MS/MS analysis. It counts as ADME. As to conditions: read-out: Stability.
A short description of series [9]: Growth inhibition of human HT1080 cells after 48 hrs by alamar blue assay. Conditions: HT-1080, 48 h. It counts as functional.
In the next series the test system is Plasma. The series is described as follows: Stability in mouse plasma at 500 ng/ml measured upto 120 mins. As to conditions: 2 h. It counts as ADME, cell-free.
The target of series [10] is T1, Cystine/glutamate transporter (Homo sapiens, UniProt Q9UPY5).
T1 sequence (Q9UPY5 whole entry): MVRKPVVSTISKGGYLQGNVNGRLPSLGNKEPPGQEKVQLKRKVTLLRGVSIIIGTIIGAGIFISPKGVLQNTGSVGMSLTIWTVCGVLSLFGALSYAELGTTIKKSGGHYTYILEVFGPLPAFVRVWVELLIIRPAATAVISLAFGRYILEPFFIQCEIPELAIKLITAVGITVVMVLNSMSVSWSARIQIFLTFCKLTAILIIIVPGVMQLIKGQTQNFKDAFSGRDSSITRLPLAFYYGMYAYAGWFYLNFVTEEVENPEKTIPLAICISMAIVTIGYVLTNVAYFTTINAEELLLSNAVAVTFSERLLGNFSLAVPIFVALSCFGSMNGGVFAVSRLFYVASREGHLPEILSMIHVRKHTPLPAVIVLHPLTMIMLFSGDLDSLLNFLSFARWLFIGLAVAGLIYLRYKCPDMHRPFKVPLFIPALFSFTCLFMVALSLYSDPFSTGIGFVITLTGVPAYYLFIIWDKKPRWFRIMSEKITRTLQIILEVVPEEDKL
As to the kind of experiment: Inhibition of Xct in human CCF-STTG1 cells assessed as glutamate release after 2 hrs by fluorometry. It is filed as cell-based.

Series [11] in a line: Growth inhibition of human RAS-G12V overexpressing BJeLR cells. It is filed as functional.
For the next series, the system named is Liver. Described as §1. It counts as ADME. Conditions: microsomes.

Converted amounts (≈) assume the structure as drawn. The source made the active and inactive calls. The calls are words filed in the database; no cut-off is given here.

As for `CC(C)Oc1ccc(C(=O)CN2CCN(C)CC2)cc1-n1c(CN2CCN(C(=O)COc3ccc(Cl)cc3)CC2)nc2ccccc2c1=O`, it took 474 nM to reach half-maximal inhibition in series [1] (IC50). For the same molecule, the selectivity ratio in series [2] was found to be 1.9. Besides, the inhibition result with DRD is “inactive”.

In the case of `CCOc1ccccc1-n1c(C(C)N2CCN(C(=O)COc3ccc(Cl)cc3)CC2)nc2ccccc2c1=O` (stereo unspecified) [ERASTIN], the inhibition entry with DRD is “Active”. In [3], this molecule came in with a solubility of 90 µM (≈ 49.2 µg/mL). The molecule further had a half-life in [4] of less than 5 min.

In series [1], `C=CCN1CCN(CC(=O)c2ccc(OC(C)C)c(-n3c(CN4CCN(C(=O)COc5ccc(Cl)cc5)CC4)nc4ccccc4c3=O)c2)CC1` displayed an IC50 of 195 nM. The selectivity ratio in series [2] is 1.5. Besides, in series [5], the remaining at 0.5 h is 0%. The inhibition result in the series with DRD is “inactive”. Also, the remaining at 5 min in [6] stood at 37.3%. In addition, the remaining at […] in series [7] came to 2.4%. Moreover, the remaining at 0.75 h in series [8] was found to be 0%.

The molecule `CC(C)Oc1ccc(C(=O)Cn2ccnc2)cc1-n1c(CN2CCN(C(=O)COc3ccc(Cl)cc3)CC2)nc2ccccc2c1=O` gave an IC50 in series [1] of 3 nM. This molecule registered a GI50 in series [9] of 314 nM. Also, the selectivity ratio in series [2] was determined as 42. In [5], the remaining at 0.5 h came to 75.4%. For the same molecule, the Stability entry with Plasma was “Stable”. Moreover, the inhibition result in the series with DRD is “Active”. Further, the remaining at 5 min in [6] is 89.3%. Moreover, the half-life in series [4] was found to be 78.5 min. Further, the remaining at […] in series [7] amounted to 82.9%. Besides, in [8], the remaining at 0.75 h came to 64.1%.

`CC(C)Oc1ccc(C(=O)CN2CCOCC2)cc1-n1c(CN2CCN(C(=O)COc3ccc(Cl)cc3)CC2)nc2ccccc2c1=O` displayed an IC50 in series [1] of 427 nM. In addition, in [2], the selectivity ratio stood at 5. The remaining at 0.5 h in series [5] stood at 30.6%. The inhibition result in the series on DRD was “Active”. Besides, the remaining at 5 min in series [6] is 83.8%. The remaining at […] in series [7] was 53.2%. Moreover, in series [8], the remaining at 0.75 h was found to be 21.2%.

`CC(C)Oc1ccc(CN2CCNCC2)cc1-n1c(CN2CCN(C(=O)COc3ccc(Cl)cc3)CC2)nc2ccccc2c1=O`: the half-inhibitory concentration (IC50) in [10] was 800 nM; in series [1], 300 nM. Halving of growth in series [9] (GI50) required 1200 nM. In addition, the selectivity ratio in [2] came to 3. Also, the remaining at 0.5 h in [5] amounted to 66.6%. The molecule also returned a solubility in series [3] of 1400 µM (≈ 903 µg/mL). Besides, the half-life in series [4] is 55.3 min. Moreover, the remaining at […] in [7] worked out at 79.2%. Further, the remaining at 0.75 h in [8] amounted to 59.4%.

As for `COc1ccc(CN2CCN(CC(=O)c3ccc(OC(C)C)c(-n4c(CN5CCN(C(=O)COc6ccc(Cl)cc6)CC5)nc5ccccc5c4=O)c3)CC2)cc1`, the IC50 in series [1] came to 13 nM. The selectivity ratio in [2] stood at 13. The remaining at 0.5 h in series [5] was found to be 0.3%. Moreover, the inhibition entry in the series with DRD is “Active”. In series [6], the remaining at 5 min was found to be 29.7%. Further, in [7], the remaining at […] worked out at 2.8%. The remaining at 0.75 h in series [8] was determined as 0.2%.

In series [1], `CC(C)Oc1ccc(C=O)cc1-n1c(CN2CCN(C(=O)COc3ccc(Cl)cc3)CC2)nc2ccccc2c1=O` returned an IC50 of 8 nM. For the same molecule, the selectivity ratio in series [2] came to 15. Moreover, the GI50 in series [11] was 8 nM. This molecule also had a solubility in [3] of 80 µM (≈ 46 µg/mL).

Turning to `CC(=O)c1ccc(OC(C)C)c(-n2c(CN3CCN(C(=O)COc4ccc(Cl)cc4)CC3)nc3ccccc3c2=O)c1`, halving of growth in [9] (GI50) required 59 nM. Moreover, the remaining at 0.5 h in series [5] amounted to 0%. Besides, the inhibition result with DRD is “Active”. In addition, in series [6], the Stability is given as 0.5%. The molecule further had a t1/2 with Liver of 3.8 min. Further, the remaining at […] in series [7] came to 0%. Besides, in series [8], the remaining at 0.75 h was found to be 0%.

`CC(C)Oc1ccc(C(=O)CN2CCNCC2)cc1-n1c(CN2CCN(C(=O)COc3ccc(Cl)cc3)CC2)nc2ccccc2c1=O` displayed a GI50 in [9] of 550 nM. In addition, in [5], the remaining at 0.5 h was 76.2%. Further, the Stability result with Plasma is “Stable”. The remaining at 5 min in [6] is 87.4%. Besides, the remaining at […] in series [7] turned out to be 94.7%. The remaining at 0.75 h in series [8] was 76.9%.

Molecule `CC(C)Oc1ccc(C(=O)C(F)(F)F)cc1-n1c(CN2CCN(C(=O)COc3ccc(Cl)cc3)CC2)nc2ccccc2c1=O` came in with an IC50 in series [1] of 210 nM. Further, in series [2], the selectivity ratio amounted to 8.

On to `CC(C)Oc1ccc(C(=O)CF)cc1-n1c(CN2CCN(C(=O)COc3ccc(Cl)cc3)CC2)nc2ccccc2c1=O`, for which, in series [5], the remaining at 0.5 h worked out at 0%. For the same molecule, the inhibition result with DRD is “Active”. The Stability in [6] came out at 15.5%. The same molecule had a t1/2 with Liver of 4.7 min. For the same molecule, the remaining at […] in series [7] came out at 0%. In [8], the remaining at 0.75 h was determined as 0%.
